From patent publication US20220323406A1, “METHODS AND COMPOSITIONS FOR DIFFERENTIATING STEM CELLS” (Massachusetts Institute of Technology, priority 2019, published 2022)

Columns and labels:
[1] = test system: ENR+CD organoids (ISC to Paneth cell differentiation); assay: Primary screen: basal (non-stimulated) lysozyme secretion LYZ.NS, 2.5-D 384-well ENR+CD organoid differentiation; format: cell-based, mouse; settings: primary screen; for Z.LYZ.NS: standard z score
Description: (§1) High-throughput screening.

ENR+CD organoids = assay: Primary screen: ATP (CellTiter-Glo 3D, CTG) cell number/viability, 2.5-D 384-well ENR+CD organoids; settings: primary screen; for Z.CTG: standard z score;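 as to all read-outs here: compounds given at plating and again on day 3 over a 6-day differentiation from ENR+CV stem-cell-enriched precursors, ATP measured on day 6, plate median as control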
[2] = test system: ENR+CD organoids (ISC to Paneth cell differentiation); assay: Primary screen: CCh-stimulated lysozyme secretion LYZ.S, 2.5-D 384-well ENR+CD organoid differentiation; format: cell-based, mouse; settings: primary screen
Description: as §1

[3] = dose 0.08 uM, FC relative to plate median
[4] = dose 0.40 uM, FC relative to plate median
[5] = dose 2.00 uM, FC relative to plate median
[6] = dose 10.00 uM, FC relative to plate median
[7] = dose 0.08 uM, FC vs plate median
[8] = dose 0.40 uM, FC vs plate median
[9] = dose 2.00 uM, FC vs plate median
[10] = dose 10.00 uM, FC vs plate median

| Compound | Dose.FC.LYZ.NS [1, 3] [log2 fold change] | Z.LYZ.NS ([1]; dose 0.08 uM) | Dose.FC.LYZ.NS [1, 4] [log2 fold change] | Z.LYZ.NS ([1]; dose 0.40 uM) | Dose.FC.LYZ.NS [1, 5] [log2 fold change] | Z.LYZ.NS ([1]; dose 2.00 uM) | Dose.FC.LYZ.NS [1, 6] [log2 fold change] | Z.LYZ.NS ([1]; dose 10.00 uM) | Dose.FC.CTG (ENR+CD organoids; [3]) [log2 fold change] | Dose.FC.CTG (ENR+CD organoids; [4]) [log2 fold change] | Dose.FC.CTG (ENR+CD organoids; [5]) [log2 fold change] | Dose.FC.CTG (ENR+CD organoids; [6]) [log2 fold change] | Dose.FC.LYZ.S [2, 3] [log2 fold change] | Dose.FC.LYZ.S [2, 4] [log2 fold change] | Dose.FC.LYZ.S [2, 5] [log2 fold change] | Dose.FC.LYZ.S [2, 6] [log2 fold change] | Dose.FC.LYZ.NS ([1]; dose 0.08 uM) [log2 fold change] | Z.LYZ.NS (standard z score) ([1]; dose 0.08 uM) | Dose.FC.LYZ.NS ([1]; dose 0.40 uM) [log2 fold change] | Z.LYZ.NS (standard z score) ([1]; dose 0.40 uM) | also measured |
| --- | --- | --- | --- | --- | --- | --- | --- | --- | --- | --- | --- | --- | --- | --- | --- | --- | --- | --- | --- | --- | --- |
| CC(C)N(CCCNC(=O)Nc1ccc(C(C)(C)C)cc1)C[C@H]1O[C@@H](n2cc(Br)c3c(N)ncnc32)[C@H](O)[C@@H]1O [SGC0946] | 0.090 | 0.787 | −0.027 | −0.236 | 0.200 | 1.738 | 0.059 | 0.516 | 0.052 | −0.122 | −0.082 | −0.142 | 0.145 | −0.098 | 0.220 | 0.065 |  |  |  |  |  |
| C#CCC(Cc1cnc2nc(N)nc(N)c2n1)c1ccc(C(=O)N[C@@H](CCC(=O)O)C(=O)O)cc1 (stereo partly drawn) [Pralatrexate] | −0.135 | −1.173 | −0.162 | −1.413 | −0.154 | −1.345 | −0.148 | −1.292 | −0.649 | −0.853 | −0.681 | −0.922 | −0.183 | −0.176 | −0.173 | −0.215 |  |  |  |  |  |
| CC(C)c1c(C(=O)Nc2ccccc2)c(-c2ccccc2)c(-c2ccc(F)cc2)n1CC[C@@H](O)C[C@@H](O)CC(=O)[O-].CC(C)c1c(C(=O)Nc2ccccc2)c(-c2ccccc2)c(-c2ccc(F)cc2)n1CC[C@@H](O)C[C@@H](O)CC(=O)[O-].[Ca+2] [Atorvastatin Calcium] |  |  |  |  |  |  |  |  |  |  |  |  |  |  |  |  | −0.009 | −0.077 | 0.007 | 0.062 | Dose.FC.LYZ.NS ([1]; dose 2.00 uM): −0.247 log2 fold change; Z.LYZ.NS (standard z score) ([1]; dose 2.00 uM): −2.148; Dose.FC.LYZ.NS ([1]; dose 10.00 uM): −0.235 log2 fold change; Z.LYZ.NS (standard z score) ([1]; dose 10.00 uM): −2.045; Dose.FC.CTG (ENR+CD organoids; dose 0.08 uM): −0.129 log2 fold change; Z.CTG (standard z score) (ENR+CD organoids; dose 0.08 uM): −0.309; Dose.FC.CTG (ENR+CD organoids; dose 0.40 uM): −0.348 log2 fold change; Z.CTG (standard z score) (ENR+CD organoids; dose 0.40 uM): −0.831; Dose.FC.CTG (ENR+CD organoids; dose 2.00 uM): −1.085 log2 fold change; Z.CTG (standard z score) (ENR+CD organoids; dose 2.00 uM): −2.591; Dose.FC.CTG (ENR+CD organoids; dose 10.00 uM): −1.583 log2 fold change; Z.CTG (standard z score) (ENR+CD organoids; dose 10.00 uM): −3.780; Dose.FC.LYZ.S ([2]; dose 0.08 uM): 0.022 log2 fold change; Dose.FC.LYZ.S ([2]; dose 0.40 uM): −0.062 log2 fold change; Dose.FC.LYZ.S ([2]; dose 2.00 uM): −0.354 log2 fold change; Dose.FC.LYZ.S ([2]; dose 10.00 uM): −0.305 log2 fold change |
| Cc1ccc(S(=O)(=O)Cc2nc(-c3ccc(C(=O)NCc4cccnc4)cc3)oc2C)cc1 [STF-118804] | −0.155 | −1.349 | −0.210 | −1.824 | −0.172 | −1.502 | −0.177 | −1.541 | −0.151 | −1.401 | −0.916 | −1.338 | −0.257 | −0.212 | −0.271 | −0.300 |  |  |  |  | Z.CTG (ENR+CD organoids; dose 0.08 uM): −0.360; Z.CTG (ENR+CD organoids; dose 0.40 uM): −3.346; Z.CTG (ENR+CD organoids; dose 2.00 uM): −2.189; Z.CTG (ENR+CD organoids; dose 10.00 uM): −3.195 |
| Cc1cc(OCCCS(C)(=O)=O)cc(C)c1-c1cccc(COc2ccc3c(c2)OC[C@H]3CC(=O)O)c1 [TAK-875] | 0.096 | 0.839 | 0.023 | 0.199 | −0.043 | −0.378 | −0.138 | −1.199 | 0.239 | −0.164 | −0.157 | −0.291 | 0.212 | 0.014 | −0.031 | −0.060 |  |  |  |  |  |
| COc1ccccc1S(=O)(=O)Nc1ccc2c(c1)CN(C)C(=O)N2 [PFI-1 (PF-6405761)] |  | 0.538 |  | 0.691 |  | −0.852 |  | −0.573 |  |  |  |  |  |  |  |  |  |  |  |  | Dose.FC.LYZ.NS [1, 7]: 0.062 log2 fold change; Dose.FC.LYZ.NS [1, 8]: 0.079 log2 fold change; Dose.FC.LYZ.NS [1, 9]: −0.098 log2 fold change; Dose.FC.LYZ.NS [1, 10]: −0.066 log2 fold change; Z.CTG (ENR+CD organoids; dose 0.08 uM): 0.340; Z.CTG (ENR+CD organoids; dose 0.40 uM): 0.931; Z.CTG (ENR+CD organoids; dose 2.00 uM): 0.770; Z.CTG (ENR+CD organoids; dose 10.00 uM): −0.929; Dose.FC.CTG (ENR+CD organoids; [7]): 0.142 log2 fold change; Dose.FC.CTG (ENR+CD organoids; [8]): 0.390 log2 fold change; Dose.FC.CTG (ENR+CD organoids; [9]): 0.322 log2 fold change; Dose.FC.CTG (ENR+CD organoids; [10]): −0.389 log2 fold change; Dose.FC.LYZ.S [2, 7]: 0.061 log2 fold change; Dose.FC.LYZ.S [2, 8]: 0.104 log2 fold change; Dose.FC.LYZ.S [2, 9]: −0.117 log2 fold change; Dose.FC.LYZ.S [2, 10]: −0.194 log2 fold change |
| Cc1ccccc1C(C(=O)NC1CCCCC1)N(C(=O)Cn1ccnc1C)c1cccc(F)c1 (stereo not drawn) [AGI-5198] |  |  |  |  |  |  |  |  |  |  |  |  |  |  |  |  | 0.055 | 0.482 | 0.042 | 0.362 | Dose.FC.LYZ.NS ([1]; dose 2.00 uM): 0.039 log2 fold change; Z.LYZ.NS (standard z score) ([1]; dose 2.00 uM): 0.342; Dose.FC.LYZ.NS ([1]; dose 10.00 uM): −0.007 log2 fold change; Z.LYZ.NS (standard z score) ([1]; dose 10.00 uM): −0.064; Dose.FC.CTG (ENR+CD organoids; dose 0.08 uM): 0.309 log2 fold change; Dose.FC.CTG (ENR+CD organoids; dose 0.40 uM): 0.154 log2 fold change; Dose.FC.CTG (ENR+CD organoids; dose 2.00 uM): 0.281 log2 fold change; Dose.FC.CTG (ENR+CD organoids; dose 10.00 uM): 0.336 log2 fold change; Dose.FC.LYZ.S ([2]; dose 0.08 uM): 0.092 log2 fold change; Dose.FC.LYZ.S ([2]; dose 0.40 uM): 0.185 log2 fold change; Dose.FC.LYZ.S ([2]; dose 2.00 uM): 0.073 log2 fold change; Dose.FC.LYZ.S ([2]; dose 10.00 uM): −0.005 log2 fold change |
| COc1cc(F)c(C(C)C)cc1-c1ccc(C(F)(F)F)cc1CN1C(=O)O[C@H](c2cc(C(F)(F)F)cc(C(F)(F)F)c2)[C@@H]1C [Anacetrapib (MK-0859)] |  |  |  |  |  |  |  |  |  |  |  |  |  |  |  |  | 0.013 | 0.112 | 0.007 | 0.060 | Dose.FC.LYZ.NS ([1]; dose 2.00 uM): −0.015 log2 fold change; Z.LYZ.NS (standard z score) ([1]; dose 2.00 uM): −0.129; Dose.FC.LYZ.NS ([1]; dose 10.00 uM): −0.036 log2 fold change; Z.LYZ.NS (standard z score) ([1]; dose 10.00 uM): −0.314; Dose.FC.CTG (ENR+CD organoids; dose 0.08 uM): −0.090 log2 fold change; Z.CTG (standard z score) (ENR+CD organoids; dose 0.08 uM): −0.214; Dose.FC.CTG (ENR+CD organoids; dose 0.40 uM): 0.035 log2 fold change; Z.CTG (standard z score) (ENR+CD organoids; dose 0.40 uM): 0.084; Dose.FC.CTG (ENR+CD organoids; dose 2.00 uM): −0.094 log2 fold change; Z.CTG (standard z score) (ENR+CD organoids; dose 2.00 uM): −0.225; Dose.FC.CTG (ENR+CD organoids; dose 10.00 uM): 0.031 log2 fold change; Z.CTG (standard z score) (ENR+CD organoids; dose 10.00 uM): 0.075; Dose.FC.LYZ.S ([2]; dose 0.08 uM): 0.051 log2 fold change; Dose.FC.LYZ.S ([2]; dose 0.40 uM): −0.002 log2 fold change; Dose.FC.LYZ.S ([2]; dose 2.00 uM): −0.046 log2 fold change; Dose.FC.LYZ.S ([2]; dose 10.00 uM): −0.036 log2 fold change |
